From US8420677B2, “Use of 3,3′-diindolylmethane” (priority 2008, dated 2013)

System: D257A mice
Test: Auditory brainstem response (ABR) hearing function test in D257A mice fed the compounds
Format: in vivo
Description: The test system was D257A−/− (D257A) mice that express a proofreading-deficient version of the mitochondrial DNA polymerase γ (POLG). These mice display features of accelerated aging including age related hearing loss (presbycusis). Hearing loss can be monitored by an elevation in auditory-evoked brainstem response (Kujoth et al., Science 309, 481-484, 2005).
Heterozygous D257A (−1+) mice were bred to generate homozogous D257A (−/−) mice, denoted D257A hereafter. Animals were identified with specific numbering and ear clippings. D257A mice were placed in various dietary regimens following PCR based genotyping and weaning at 3 weeks of age. Mice received a diet based on AIN-93M maintenance purified diet (TestDiet, Richmond, USA), with neither no supplementation (Control group), or supplementation with DIM (40 mg/kg, BioResponse LLC Boulder, Colo.), (−)-epigallocatechin gallate, or (EGCG) (300 mg/kg, DSM Nutritional Products, Switzerland).
Hearing function was tested in 9 month-old D257A mice receiving the various compounds. Auditory brainstem responses (ABRs) were measured with a tone burst stimulus (8, 16 and 32 kHz) using an ABR recording system (Intelligent Hearing System, Miami Fla.). Animals were anesthetized with a mixture of xylazine hydrochloride (10 mg/kg, i.m.) and ketamine hydrochloride (40 mg/kg, i.m.), and needle electrodes were placed subcutaneously at the vertex (active electrode), beneath the pinna of the measured ear (reference electrode), and beneath the opposite ear (ground). The stimulus duration, presentation rate, and rise/fall time was 3 ms, 19.3/s, and 1 ms respectively. Responses of 1024 sweeps were averaged at each intensity level (5 dB steps) to access the hearing threshold. The hearing threshold was defined as the lowest intensity level at which a clear reproducible waveform was visible in the trace. Means of ABR thresholds were compared at 8, 16 and 32 kHz.

c1ccc2c(Cc3c[nH]c4ccccc34)c[nH]c2c1 [DIM, 3,3′-diindolylmethane]
hearing threshold (auditory-evoked brain stem response threshold) (8 kHz, 9 month-old D257A mice, DIM 40 mg/kg in diet, control approximately 40 dB): approximately 10 dB
deaf mice (no auditory-evoked brainstem response) (8 kHz, 9 month-old D257A mice, diet supplementation from weaning (DIM 40 mg/kg, EGCG 300 mg/kg), control 3 out of 8 deaf): no deaf mice
percentage of deaf mice (32 kH, 9 month-old D257A mice, compared to the control group and the other tested compounds): significantly lower
effect on age related hearing loss (supplementation from early age on, D257A mice): protective effect
